The values that follow come from patent US20240043404A1 (AbbVie Inc., priority 2009, published 2024).

A value given as a limit tells only on which side of the number the result lay.

In the first assay the test system is RS4;11 cells. Description: RS4;11 cell viability assay (CellTiter Glo).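 Note: acute lymphoblastic leukemia line RS4,11, EC50 derived from percentage of viable cells after treatment relative to untreated controls, cell killing taken as a measure of Bcl-2 inhibition.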 The assay is classed as cell-based, human. The settings on record: 50,000 cells per well, 10% human serum, 48 hours; read-out: RS4; 11 EC50 Values. On the technique in general: In ATP-based viability assays light output follows the ATP content of the culture.
Protocol: The acute lymphoblastic leukemia (ALL) cell line RS4;11 was used as the primary human cell line to assess the cellular activity of Bcl-2 selective agents in vitro and their efficacy in vivo.
Cell cytotoxicity EC50 values were assessed using CellTiter Glo (Promega) according to the manufacturer's recommendations. The EC50 values were determined as a percentage of viable cells following treatment compared to the untreated control cells.
As for `CC1(C)CCC(CN2CCN(c3ccc(C(=O)NS(=O)(=O)c4ccc(NC[C@H]5CC[C@](C)(O)CC5)c([N+](=O)[O-])c4)c(Oc4cnc5[nH]ccc5c4)c3)CC2)=C(c2ccc(Cl)cc2)C1` [Example 338, 4-(4-{[2-(4-chlorophenyl)-4,4-dimethylcyclohex-1-en-1-yl]methyl}piperazin-1-yl)-N-[(4-{[(cis-4-hydroxy-4-methylcyclohexyl)methyl]amino}-3-nitrophenyl)sulfonyl]-2-(1H-pyrrolo[2,3-b]pyridin-5-yloxy)benzamide], the EC50 was determined as 3.4 nM.

The same assay, now with this note: Homo sapiens, RS4-11, 48 h, 50,000 cells per well, 10% human serum, 48 hours; read-out: RS4; 11 EC50 Values.
Regarding `CC1(C)CCC(CN2CCN(c3ccc(C(=O)NS(=O)(=O)c4ccc(NC[C@@H]5CCN(C6CCOCC6)C5)c([N+](=O)[O-])c4)c(Oc4cnc5[nH]ccc5c4)c3)CC2)=C(c2ccc(Cl)cc2)C1` [Example 145, 4-(4-{[2-(4-chlorophenyl)-4,4-dimethylcyclohex-1-en-1-yl]methyl}piperazin-1-yl)-N-{[3-nitro-4-({[(3S)-1-tetrahydro-2H-pyran-4-ylpyrrolidin-3-yl]methyl}amino)phenyl]sulfonyl}-2-(1H-pyrrolo[2,3-b]pyridin-5-yloxy)benzamide], the EC50 turned out to be 4 nM.
On the same count and under the same terms, then `COCC(C)(C)CNc1ccc(S(=O)(=O)NC(=O)c2ccc(N3CCN(CC4=C(c5ccc(Cl)cc5)CC(C)(C)CC4)CC3)cc2Oc2cnc3[nH]ccc3c2)cc1[N+](=O)[O-]` [Example 155, 4-(4-{[2-(4-chlorophenyl)-4,4-dimethylcyclohex-1-en-1-yl]methyl}piperazin-1-yl)-N-({4-[(3-methoxy-2,2-dimethylpropyl)amino]-3-nitrophenyl}sulfonyl)-2-(1H-pyrrolo[2,3-b]pyridin-5-yloxy)benzamide], with 594 nM; and `CC1(C)CCC(CN2CCN(c3ccc(C(=O)NS(=O)(=O)c4cnc(NCC5CCOCC5)c([N+](=O)[O-])c4)c(Oc4cnc5[nH]ccc5c4)c3)CC2)=C(c2ccc(Cl)cc2)C1` [Example 364, 4-(4-{[2-(4-chlorophenyl)-4,4-dimethylcyclohex-1-en-1-yl]methyl}piperazin-1-yl)-N-({5-nitro-6-[(tetrahydro-2H-pyran-4-ylmethyl)amino]pyridin-3-yl}sulfonyl)-2-(1H-pyrrolo[2,3-b]pyridin-5-yloxy)benzamide], with 11.2 nM.
`CO[C@H]1CC[C@H](COc2ncc(S(=O)(=O)NC(=O)c3ccc(N4CCN(CC5=C(c6ccc(Cl)cc6)CC(C)(C)CC5)CC4)cc3Oc3cnc4[nH]ccc4c3)cc2Cl)CC1` [Example 210, Trans-N-({5-chloro-6-[(4-methoxycyclohexyl)methoxy]pyridin-3-yl}sulfonyl)-4-(4-{[2-(4-chlorophenyl)-4,4-dimethylcyclohex-1-en-1-yl]methyl}piperazin-1-yl)-2-(1H-pyrrolo[2,3-b]pyridin-5-yloxy)benzamide]: the EC50 is 60.2 nM.
Still for that read-out and setting: then `CC1(C)CCC(CN2CCN(c3ccc(C(=O)NS(=O)(=O)c4ccc(NCC5CCOCC5)c(S(=O)(=O)C(F)(F)F)c4)c(Oc4cnc5[nH]ccc5c4)c3)CC2)=C(c2ccc(Cl)cc2)C1` [Example 17, 4-(4-{[2-(4-chlorophenyl)-4,4-dimethylcyclohex-1-en-1-yl]methyl}piperazin-1-yl)-2-(1H-pyrrolo[2,3-b]pyridin-5-yloxy)-N-({4-[(tetrahydro-2H-pyran-4-ylmethyl)amino]-3-[(trifluoromethyl)sulfonyl]phenyl}sulfonyl)benzamide], with 475 nM; and `CC1(C)CCC(CN2CCN(c3ccc(C(=O)NS(=O)(=O)c4cnc(O[C@@H]5CCN(CC(F)F)C5)c(Cl)c4)c(Oc4cnc5[nH]ccc5c4)c3)CC2)=C(c2ccc(Cl)cc2)C1` [Example 261, N-[(5-chloro-6-{[(3R)-1-(2,2-difluoroethyl)pyrrolidin-3-yl]oxy}pyridin-3-yl)sulfonyl]-4-(4-{[2-(4-chlorophenyl)-4,4-dimethylcyclohex-1-en-1-yl]methyl}piperazin-1-yl)-2-(1H-pyrrolo[2,3-b]pyridin-5-yloxy)benzamide], with 184 nM; and `CC1(C)CCC(CN2CCN(c3ccc(C(=O)NS(=O)(=O)c4ccc(OCCOC5CCOC5)c([N+](=O)[O-])c4)c(Oc4cnc5[nH]ccc5c4)c3)CC2)=C(c2ccc(Cl)cc2)C1` (stereo not shown) [Example 275, 4-(4-{[2-(4-chlorophenyl)-4,4-dimethylcyclohex-1-en-1-yl]methyl}piperazin-1-yl)-N-({3-nitro-4-[2-(tetrahydrofuran-3-yloxy)ethoxy]phenyl}sulfonyl)-2-(1H-pyrrolo[2,3-b]pyridin-5-yloxy)benzamide], with 143 nM.
As to `CC1(C)CCC(CN2CCN(c3ccc(C(=O)NS(=O)(=O)c4cnc(OCC5CCOCC5)c(C(N)=O)c4)c(Oc4cnc5[nH]ccc5c4)c3)CC2)=C(c2ccc(Cl)cc2)C1` [Example 46, 5-({[4-(4-{[2-(4-chlorophenyl)-4,4-dimethylcyclohex-1-en-1-yl]methyl}piperazin-1-yl)-2-(1H-pyrrolo[2,3-b]pyridin-5-yloxy)benzoyl]amino}sulfonyl)-2-(tetrahydro-2H-pyran-4-ylmethoxy)nicotinamide], the EC50 was more than 5000 nM.
Same read-out and setting: then `CC1(C)CCC(CN2CCN(c3ccc(C(=O)NS(=O)(=O)c4ccc(NCC5CN(C6COC6)CCO5)c(S(=O)(=O)C(F)(F)F)c4)c(Oc4cnc5[nH]ccc5c4)c3)CC2)=C(c2ccc(Cl)cc2)C1` (stereo not shown) [Example 241, 4-(4-{[2-(4-chlorophenyl)-4,4-dimethylcyclohex-1-en-1-yl]methyl}piperazin-1-yl)-N-({4-({[4-(oxetan-3-yl)morpholin-2-yl]methyl}amino)-3-[(trifluoromethyl)sulfonyl]phenyl}sulfonyl)-2-(1H-pyrrolo[2,3-b]pyridin-5-yloxy)benzamide], with 114 nM.
Same read-out and setting: then `CC1(C)CCC(CN2CCN(c3ccc(C(=O)NS(=O)(=O)c4ccc(NN5CCN(C6CCOCC6)CC5)c([N+](=O)[O-])c4)c(Oc4cnc5[nH]ccc5c4)c3)CC2)=C(c2ccc(Cl)cc2)C1` [Example 237, 4-(4-{[2-(4-chlorophenyl)-4,4-dimethylcyclohex-1-en-1-yl]methyl}piperazin-1-yl)-N-[(3-nitro-4-{[4-(tetrahydro-2H-pyran-4-yl)piperazin-1-yl]amino}phenyl)sulfonyl]-2-(1H-pyrrolo[2,3-b]pyridin-5-yloxy)benzamide], with 53.2 nM.
Still for that read-out and setting: the value for `CC1(C)CCC(CN2CCN(c3ccc(C(=O)NS(=O)(=O)c4ccc(NC[C@H]5CCN(C6CCOCC6)C5)c([N+](=O)[O-])c4)c(Oc4cnc5[nH]ccc5c4)c3)CC2)=C(c2ccc(Cl)cc2)C1` [Example 118, 4-(4-{[2-(4-chlorophenyl)-4,4-dimethylcyclohex-1-en-1-yl]methyl}piperazin-1-yl)-N-{[3-nitro-4-({[(3R)-1-tetrahydro-2H-pyran-4-ylpyrrolidin-3-yl]methyl}amino)phenyl]sulfonyl}-2-(1H-pyrrolo[2,3-b]pyridin-5-yloxy)benzamide] was 12.9 nM; that for `CC(=O)N[C@H]1CC[C@H](Nc2ccc(S(=O)(=O)NC(=O)c3ccc(N4CCN(CC5=C(c6ccc(Cl)cc6)CC(C)(C)CC5)CC4)cc3Oc3cnc4[nH]ccc4c3)cc2[N+](=O)[O-])CC1` [Example 179, Trans-N-[(4-{[4-(acetylamino)cyclohexyl]amino}-3-nitrophenyl)sulfonyl]-4-(4-{[2-(4-chlorophenyl)-4,4-dimethylcyclohex-1-en-1-yl]methyl}piperazin-1-yl)-2-(1H-pyrrolo[2,3-b]pyridin-5-yloxy)benzamide] was 42.7 nM; that for `CN(C)CC(=O)N1CCO[C@@H](CNc2ccc(S(=O)(=O)NC(=O)c3ccc(N4CCN(CC5=C(c6ccc(Cl)cc6)CC(C)(C)CC5)CC4)cc3Oc3cnc4[nH]ccc4c3)cc2[N+](=O)[O-])C1` [Example 259, 4-(4-{[2-(4-chlorophenyl)-4,4-dimethylcyclohex-1-en-1-yl]methyl}piperazin-1-yl)-N-{[4-({[(2S)-4-(N,N-dimethylglycyl)morpholin-2-yl]methyl}amino)-3-nitrophenyl]sulfonyl}-2-(1H-pyrrolo[2,3-b]pyridin-5-yloxy)benzamide] was 0.388 nM.
`CC1(C)CCC(CN2CCN(c3ccc(C(=O)NS(=O)(=O)c4ccc(OCC5COCCN5C5CCOCC5)c([N+](=O)[O-])c4)c(Oc4cnc5[nH]ccc5c4)c3)CC2)=C(c2ccc(Cl)cc2)C1` (stereo not shown) [Example 104, 4-(4-{[2-(4-chlorophenyl)-4,4-dimethylcyclohex-1-en-1-yl]methyl}piperazin-1-yl)-N-({3-nitro-4-[(4-tetrahydro-2H-pyran-4-ylmorpholin-3-yl)methoxy]phenyl}sulfonyl)-2-(1H-pyrrolo[2,3-b]pyridin-5-yloxy)benzamide]: the EC50 came out at 71.2 nM.
On the same count and under the same terms, then `CC1(C)CCC(CN2CCN(c3ccc(C(=O)NS(=O)(=O)c4ccc(NC5CN(C6COC6)C5)c([N+](=O)[O-])c4)c(Oc4cnc5[nH]ccc5c4)c3)CC2)=C(c2ccc(Cl)cc2)C1` [Example 256, 4-(4-{[2-(4-chlorophenyl)-4,4-dimethylcyclohex-1-en-1-yl]methyl}piperazin-1-yl)-N-[(3-nitro-4-{[1-(oxetan-3-yl)azetidin-3-yl]amino}phenyl)sulfonyl]-2-(1H-pyrrolo[2,3-b]pyridin-5-yloxy)benzamide], with 18 nM; and `CC(=O)N1CCC(CNc2ccc(S(=O)(=O)NC(=O)c3ccc(N4CCN(CC5=C(c6ccc(Cl)cc6)CC(C)(C)CC5)CC4)cc3Oc3cnc4[nH]ccc4c3)cc2[N+](=O)[O-])C1` (stereo not shown) [Example 153, N-[(4-{[(1-acetylpyrrolidin-3-yl)methyl]amino}-3-nitrophenyl)sulfonyl]-4-(4-{[2-(4-chlorophenyl)-4,4-dimethylcyclohex-1-en-1-yl]methyl}piperazin-1-yl)-2-(1H-pyrrolo[2,3-b]pyridin-5-yloxy)benzamide], with 17.2 nM.
The same measure, in the same setting: the value for `CC1(C)CCC(CN2CCN(c3ccc(C(=O)NS(=O)(=O)c4ccc(NCC5CCOC5)c([N+](=O)[O-])c4)c(Oc4cnc5[nH]ccc5c4)c3)CC2)=C(c2ccc(Cl)cc2)C1` (stereo not shown) [Example 114, 4-(4-{[2-(4-chlorophenyl)-4,4-dimethylcyclohex-1-en-1-yl]methyl}piperazin-1-yl)-N-({3-nitro-4-[(tetrahydrofuran-3-ylmethyl)amino]phenyl}sulfonyl)-2-(1H-pyrrolo[2,3-b]pyridin-5-yloxy)benzamide] was 10.8 nM.

Still in this assay, the particulars now being: Homo sapiens, RS4-11, Table 5, direct comparison Z=N with corresponding analogs Z=C; read-out: RS4; 11 EC50.
As to `CC1(C)CCC(CN2CCN(c3ccc(C(=O)NS(=O)(=O)c4ccc(NCC5CCOCC5)c(S(=O)(=O)C(F)(F)F)c4)c(Oc4cnc5[nH]ccc5c4)c3)CC2)=C(c2ccc(Cl)cc2)C1` [Example 17, 4-(4-{[2-(4-chlorophenyl)-4,4-dimethylcyclohex-1-en-1-yl]methyl}piperazin-1-yl)-2-(1H-pyrrolo[2,3-b]pyridin-5-yloxy)-N-({4-[(tetrahydro-2H-pyran-4-ylmethyl)amino]-3-[(trifluoromethyl)sulfonyl]phenyl}sulfonyl)benzamide], the EC50 came to 475 nM.
